The target in this test is T1, hα4 and β1 integrins (Homo sapiens, UniProt P05556+P13612).
T1 construct: expressed in transfected cells; host or cells: CHO cells
The test can be described thus: In vitro inhibition of binding between CHO cells expressing hα4 and β1 integrins and Eu3+-hVCAM-1 D1D7-IgG. The note with it: for Ki: CHO cells expressing hα4 and β1 integrins, Eu3+-hVCAM-1 D1D7-IgG ligand, without HSA; for IC50: in the presence of 3% human serum albumin (HSA final concentration 3%). The procedure, abridged: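 Transfected CHO cells, cultured 2 days, were incubated with compound and Eu³⁺-hVCAM-1 D1D7-IgG (diluted to 2 nM) for 1 h at room temperature. Buffer was 25 mM HEPES pH 7.5 with 1 mM Ca²⁺, 1 mM Mg²⁺, 4 mM Mn²⁺ and 0.1% BSA, ±3% HSA final. Cells were washed at 4 °C and read by DELFIA time-resolved fluorescence; Ki was derived from IC50 using the Scatchard Kd.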

T1 sequence (P13612 34-1032): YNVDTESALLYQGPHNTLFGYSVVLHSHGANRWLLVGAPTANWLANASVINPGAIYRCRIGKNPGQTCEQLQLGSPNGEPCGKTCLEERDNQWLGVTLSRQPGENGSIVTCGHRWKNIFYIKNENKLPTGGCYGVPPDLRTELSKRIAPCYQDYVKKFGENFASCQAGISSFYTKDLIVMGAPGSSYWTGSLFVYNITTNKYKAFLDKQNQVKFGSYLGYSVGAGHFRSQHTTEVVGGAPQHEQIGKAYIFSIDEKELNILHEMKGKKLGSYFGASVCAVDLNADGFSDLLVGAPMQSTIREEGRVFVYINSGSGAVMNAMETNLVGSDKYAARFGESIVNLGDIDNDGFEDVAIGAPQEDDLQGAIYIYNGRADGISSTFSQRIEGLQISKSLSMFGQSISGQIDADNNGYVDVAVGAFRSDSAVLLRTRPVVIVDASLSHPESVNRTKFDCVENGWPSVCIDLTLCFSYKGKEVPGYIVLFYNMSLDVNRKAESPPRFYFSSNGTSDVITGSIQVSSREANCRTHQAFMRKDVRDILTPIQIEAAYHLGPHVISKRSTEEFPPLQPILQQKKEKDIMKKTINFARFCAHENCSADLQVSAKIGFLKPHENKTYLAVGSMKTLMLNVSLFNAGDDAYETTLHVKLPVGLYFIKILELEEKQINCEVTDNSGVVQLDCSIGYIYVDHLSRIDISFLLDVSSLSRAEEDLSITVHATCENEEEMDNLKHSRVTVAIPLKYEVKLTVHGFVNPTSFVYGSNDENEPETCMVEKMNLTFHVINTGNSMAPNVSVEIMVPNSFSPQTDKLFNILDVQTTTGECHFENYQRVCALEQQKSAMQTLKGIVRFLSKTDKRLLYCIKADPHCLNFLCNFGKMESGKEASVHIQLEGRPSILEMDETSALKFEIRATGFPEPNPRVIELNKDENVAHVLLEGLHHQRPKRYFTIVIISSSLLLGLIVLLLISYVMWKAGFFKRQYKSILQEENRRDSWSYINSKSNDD
T1 sequence (P05556 21-798): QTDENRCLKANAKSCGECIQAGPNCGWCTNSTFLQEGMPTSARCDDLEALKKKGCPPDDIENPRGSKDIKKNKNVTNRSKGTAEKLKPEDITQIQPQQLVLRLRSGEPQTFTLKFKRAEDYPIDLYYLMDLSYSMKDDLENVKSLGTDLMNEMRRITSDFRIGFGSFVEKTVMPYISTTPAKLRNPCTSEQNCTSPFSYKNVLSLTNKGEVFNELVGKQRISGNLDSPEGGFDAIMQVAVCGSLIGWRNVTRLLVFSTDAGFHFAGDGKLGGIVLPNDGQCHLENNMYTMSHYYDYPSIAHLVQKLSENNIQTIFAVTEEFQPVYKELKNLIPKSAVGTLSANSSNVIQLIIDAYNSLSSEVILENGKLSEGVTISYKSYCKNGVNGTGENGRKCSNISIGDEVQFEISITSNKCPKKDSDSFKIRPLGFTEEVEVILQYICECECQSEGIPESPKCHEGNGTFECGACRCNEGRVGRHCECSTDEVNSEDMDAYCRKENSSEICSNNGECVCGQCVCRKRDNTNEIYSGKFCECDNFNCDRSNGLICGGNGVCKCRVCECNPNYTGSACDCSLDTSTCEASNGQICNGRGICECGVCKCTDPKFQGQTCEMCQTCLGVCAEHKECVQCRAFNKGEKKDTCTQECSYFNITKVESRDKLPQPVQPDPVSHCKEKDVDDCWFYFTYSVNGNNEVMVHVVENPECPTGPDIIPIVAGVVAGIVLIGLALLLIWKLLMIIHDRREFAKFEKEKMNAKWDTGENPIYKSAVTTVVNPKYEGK

Take `Cn1cc(C(=O)Nc2cc(Cl)c(CC(=O)N3C[C@@H](N4CCC(S(C)(=O)=O)CC4)C[C@H]3CO[C@H]3CC[C@H](C(=O)O)CC3)cc2Cl)c2ccccc21` [Example 108, Trans-4-[1-[[2,5-dichloro-4-[(1-methyl-1H-indol-3-ylcarbonyl)amino]phenyl]acetyl]-(4S)-(4-methanesulfonylpiperidin-1-yl)-(2S)-pyrrolidinylmethoxy]cyclohexanecarboxylic acid]: the Ki (usually the equilibrium dissociation constant of an inhibitor or competing ligand from its target) was found to be 3.1 nM and the IC50 – broadly, the midpoint of a concentration-inhibition curve – stood at 8.2 nM.

Regarding `O=C(Nc1cc(F)c(CC(=O)N2C[C@@H](N3CCC(Oc4ccccc4)CC3)C[C@H]2CO[C@H]2CC[C@H](C(=O)O)CC2)cc1Cl)c1csc2ccccc12` [Example 102], the Ki worked out at 1.2 nM and the IC50 is 33 nM.

For `O=C(Nc1cc(Cl)c(CC(=O)N2C[C@@H](N3CCN(C4CC4)CC3)C[C@H]2CO[C@H]2CC[C@H](C(=O)O)CC2)cc1Cl)c1coc2ccccc12` [Example 140], the Ki was 1.8 nM and the IC50 came out at 7.6 nM.

On to `Cn1cc(C(=O)Nc2cc(Cl)c(CC(=O)N3C[C@@H](N4CCN(CCF)CC4)C[C@H]3CO[C@H]3CC[C@H](C(=O)O)CC3)cc2Cl)c2ccccc21` [Example 117, Trans-4-[1-[[2,5-dichloro-4-[(1-methyl-1H-indol-3-ylcarbonyl)amino]phenyl]acetyl]-(4S)-[4-(2-fluoroethyl)piperazin-1-yl]-(2S)-pyrrolidinylmethoxy]cyclohexanecarboxylic acid], for which the Ki was 4.5 nM and the IC50 was 12 nM.

Turning to `CCC1(OC)CN([C@H]2C[C@@H](CO[C@H]3CC[C@H](C(=O)O)CC3)N(C(=O)Cc3cc(Cl)c(NC(=O)c4csc5ccccc45)cc3F)C2)C1` [Example 17, Trans-4-[1-[[4-[(benzo[b]thiophen-3-ylcarbonyl)amino]-5-chloro-2-fluorophenyl]acetyl]-(4S)-(3-ethyl-3-methoxyazetidin-1-yl)-(2S)-pyrrolidinylmethoxy]cyclohexanecarboxylic acid], the affinity corresponds to a Ki of 1.8 nM and the IC50 was determined as 48 nM.

Regarding `CN1CCN([C@H]2C[C@@H](CO[C@H]3CC[C@H](C(=O)O)CC3)N(C(=O)Cc3cc(Cl)c(NC(=O)c4cn(C)c5ccccc45)cc3Cl)C2)CC1=O` [Example 152, Trans-4-[1-[[2,5-dichloro-4-[(1-methyl-1H-indol-3-ylcarbonyl)amino]phenyl]acetyl]-(4S)-(4-methyl-3-oxopiperazin-1-yl)-(2S)-pyrrolidinylmethoxy]cyclohexanecarboxylic acid], the Ki amounted to 3.9 nM and the IC50 was 11 nM.

As to `CN(C)C1CN([C@H]2C[C@@H](CO[C@H]3CC[C@H](C(=O)O)CC3)N(C(=O)Cc3cc(Cl)c(NC(=O)c4csc5ccccc45)cc3Cl)C2)C1` [Example 23, Trans-4-[1-[[4-[(benzo[b]thiophen-3-ylcarbonyl)amino]-2,5-dichlorophenyl]acetyl]-(4S)-[3-(N,N-dimethylamino)azetidin-1-yl]-(2S)-pyrrolidinylmethoxy]cyclohexanecarboxylic acid], the affinity, expressed as Ki, was 2.5 nM and the IC50 turned out to be 14 nM.

Consider `O=C(Nc1cc(F)c(CC(=O)N2C[C@@H](N3CCC3)C[C@H]2CO[C@H]2CC[C@H](C(=O)O)CC2)cc1Cl)c1csc2ccccc12` [Example 9, Trans-4-[(4S)-(azetidin-1-yl)-1-[[4-[(benzo[b]thiophen-3-ylcarbonyl)amino]-5-chloro-2-fluorophenyl]acetyl]-(2S)-pyrrolidinylmethoxy]cyclohexanecarboxylic acid], for which the Ki turned out to be 1.4 nM and the IC50 is 8.2 nM.

`Cn1cc(C(=O)Nc2cc(Cl)c(CC(=O)N3C[C@@H](N4CCN(CC(F)F)CC4)C[C@H]3CO[C@H]3CC[C@H](C(=O)O)CC3)cc2Cl)c2ccccc21` [Example 120, Trans-4-[1-[[2,5-dichloro-4-[(1-methyl-1H-indol-3-ylcarbonyl)amino]phenyl]acetyl]-(4S)-[4-(2,2-difluoroethyl)piperazin-1-yl]-(2S)-pyrrolidinylmethoxy]cyclohexanecarboxylic acid]: the affinity, expressed as Ki, was 3.8 nM and the IC50 amounted to 16 nM.

`O=C(Nc1cc(Cl)c(CC(=O)N2C[C@@H](N3CCCOCC3)C[C@H]2CO[C@H]2CC[C@H](C(=O)O)CC2)cc1Cl)c1csc2ccccc12` [Example 166, Trans-4-[1-[[4-[(benzo[b]thiophen-3-ylcarbonyl)amino]-2,5-dichlorophenyl]acetyl]-(4S)-([1,4]-oxazepan-4-yl)-(2S)-pyrrolidinylmethoxy]cyclohexanecarboxylic acid]: the Ki was 1.7 nM and the IC50 is 8.2 nM.

In the case of `O=C(Nc1cc(Cl)c(CC(=O)N2C[C@@H](n3ccnc3)C[C@H]2CO[C@H]2CC[C@H](C(=O)O)CC2)cc1Cl)c1csc2ccccc12` [Example 68, Trans-4-[1-[[4-[(benzo[b]thiophen-3-ylcarbonyl)amino]-2,5-dichlorophenyl]acetyl]-(4S)-(imidazol-1-yl)-(2S)-pyrrolidinylmethoxy]cyclohexanecarboxylic acid], the affinity corresponds to a Ki of 2.1 nM and the IC50 was 30 nM.

As for `O=C(Nc1ccc(CC(=O)N2C[C@@H](N3CCN(CC(F)(F)F)CC3)C[C@H]2CO[C@H]2CC[C@H](C(=O)O)CC2)cc1Cl)c1csc2ccccc12` [Example 134, Trans-4-[1-[[4-[(benzo[b]thiophen-3-ylcarbonyl)amino]-3-chlorophenyl]acetyl]-(4S)-[4-(2,2,2-trifluoroethyl)piperazin-1-yl]-(2S)-pyrrolidinylmethoxy]cyclohexanecarboxylic acid], the Ki was 1.2 nM and the IC50 came out at 6.8 nM.

In the case of `COC[C@@H]1C[C@H](F)CN1[C@H]1C[C@@H](CO[C@H]2CC[C@H](C(=O)O)CC2)N(C(=O)Cc2cc(Cl)c(NC(=O)c3cn(C)c4ccccc34)cc2Cl)C1` [Example 45, Trans-4-[1-[[2,5-dichloro-4-[(1-methyl-1H-indol-3-ylcarbonyl)amino]phenyl]acetyl]-(4S)-[(4S)-fluoro-(2S)-methoxymethylpyrrolidin-1-yl]-(2S)-pyrrolidinylmethoxy]cyclohexane carboxylic acid], the Ki came out at 14 nM and the IC50 is 15 nM.

As to `CO[C@H]1CN([C@H]2C[C@@H](CO[C@H]3CC[C@H](C(=O)O)CC3)N(C(=O)Cc3cc(Cl)c(NC(=O)c4csc5ccccc45)cc3F)C2)C[C@H]1OC` [Example 57, Trans-4-[1-[[4-[(benzo[b]thiophen-3-ylcarbonyl)amino]-5-chloro-2-fluorophenyl]acetyl]-(4S)-(cis-3,4-dimethoxypyrrolidin-1-yl)-(2S)-pyrrolidinylmethoxy]cyclohexanecarboxylic acid], the Ki turned out to be 1.4 nM and the IC50 worked out at 6.2 nM.

For `CC1CCCN1[C@H]1C[C@@H](CO[C@H]2CC[C@H](C(=O)O)CC2)N(C(=O)Cc2cc(Cl)c(NC(=O)c3csc4ccccc34)cc2F)C1` (stereo partly drawn) [Example 40, Trans-4-[1-[[4-[(benzo[b]thiophen-3-ylcarbonyl)amino]-5-chloro-2-fluorophenyl]acetyl]-(4S)-(2-methylpyrrolidin-1-yl)-(2S)-pyrrolidinylmethoxy]cyclohexanecarboxylic acid], the affinity, expressed as Ki, was 2 nM and the IC50 turned out to be 9.1 nM.

`CC1CCN([C@H]2C[C@@H](CO[C@H]3CC[C@H](C(=O)O)CC3)N(C(=O)Cc3cc(Cl)c(NC(=O)c4csc5ccccc45)cc3F)C2)CC1` [Example 98, Trans-4-[1-[[4-[(benzo[b]thiophen-3-ylcarbonyl)amino]-5-chloro-2-fluorophenyl]acetyl]-(4S)-(4-methylpiperidin-1-yl)-(2S)-pyrrolidinylmethoxy]cyclohexanecarboxylic acid]: the Ki came out at 0.89 nM and the IC50 was found to be 3 nM.

As for `Cn1cc(C(=O)Nc2cc(F)c(CC(=O)N3C[C@@H](N4CC5CC4CO5)C[C@H]3CO[C@H]3CC[C@H](C(=O)O)CC3)cc2Cl)c2ccccc21` (stereo partly drawn) [Example 163, Trans-4-[1-[[5-chloro-2-fluoro-4-[(1-methyl-1H-indol-3-ylcarbonyl)amino]phenyl]acetyl]-(4S)-[(1S,4S)-2-oxa-5-azabicyclo[2.2.1]heptan-5-yl]-(2S)-pyrrolidinylmethoxy]cyclohexanecarboxylic acid], the inhibitory constant (Ki) turned out to be 6.4 nM and the IC50 turned out to be 36 nM.

Consider `Cn1cc(C(=O)Nc2cc(Cl)c(CC(=O)N3C[C@@H](N4CCN(C(=O)C(C)(C)C)CC4)C[C@H]3CO[C@H]3CC[C@H](C(=O)O)CC3)cc2Cl)c2ccccc21` [Example 149, Trans-4-[1-[[2,5-dichloro-4-[(1-methyl-1H-indol-3-ylcarbonyl)amino]phenyl]acetyl]-(4S)-(4-pivaloylpiperazin-1-yl)-(2S)-pyrrolidinylmethoxy]cyclohexanecarboxylic acid], for which the affinity corresponds to a Ki of 1.7 nM and the IC50 is 24 nM.

On to `O=C(Nc1cc(F)c(CC(=O)N2C[C@@H](N3CCSCC3)C[C@H]2CO[C@H]2CC[C@H](C(=O)O)CC2)cc1Cl)c1coc2ccccc12` [Example 159, Trans-4-[1-[[4-[(benzo[b]furan-3-ylcarbonyl)amino]-5-chloro-2-fluorophenyl]acetyl]-(4S)-(thiomorpholin-4-yl)-(2S)-pyrrolidinylmethoxy]cyclohexanecarboxylic acid], for which the affinity corresponds to a Ki of 4.4 nM and the 50% inhibitory concentration (IC50) was found to be 13 nM.

Take `O=C(Nc1cc(F)c(CC(=O)N2C[C@@H](n3ccnc3)C[C@H]2CO[C@H]2CC[C@H](C(=O)O)CC2)cc1Cl)c1csc2ccccc12` [Example 67, Trans-4-[1-[[4-[(benzo[b]thiophen-3-ylcarbonyl)amino]-5-chloro-2-fluorophenyl]acetyl]-(4S)-(imidazol-1-yl)-(2S)-pyrrolidinylmethoxy]cyclohexanecarboxylic acid]: the affinity corresponds to a Ki of 1.2 nM and the IC50 amounted to 12 nM.
